According to paper PMC5786788, “Antimicrobial Octapeptin C4 Analogues Active against Cryptococcus Species” (Antimicrobial Agents and Chemotherapy, 2018):
In brackets after ≈: the same amount, converted by molar mass. Entries after “also recorded” stand apart in the source; their conditions may differ. Where a SMILES comes first, the peptide text is derived from it. Bridges are numbered along the chain shown (N, C = ends). [ ]: non-standard residue; d: D form. The star is where a group is joined. Decanoyl(3R-OH) = CCCCCCC[C@@H](O)CC(=O)*; dDab = NCC[C@@H](N)C(=O)O; Dab = NCC[C@H](N)C(=O)O

Assays:
C. gattii MMRL 2651 = settings: 72 h
C. neoformans ATCC 90113 = settings: ATCC 90113, 72 h
[1] = test system: C. neoformans H99 (cap59Δ); assay type: cell-based, Cryptococcus neoformans; settings: triplicate
Source text: The different susceptibility of C. neoformans and C. gattii to PMB compared to other pathogenic fungi such as C. albicans and A. fumigatus has been postulated to arise from differences in cell surface composition ([38]). One key difference is the presence of a negatively charged polysaccharide capsule in Cryptococcus spp. proposed to concentrate the cationic lipopeptides at the cell surface ([38]). To examine this potential interaction for the octapeptin series, a C. neoformans cap59Δ mutant strain deficient in the secretion of negatively charged glucuronoxylomannan (an α1–3-linked mannan containing β1,2 and β1,4 xylosyl substitutions, as well as β1,2-linked glucuronyl residues) ([41], [42]), was tested against octapeptin C4 in comparison to PMB.
Fungal strains were stored in 15% glycerol at −80°C until use. The fungal strains used were H99 (C. neoformans type strain) ([55]), cap59Δ (an acapsular H99 mutant) ([56]), ATCC 90113 (C. neoformans), MMRL 2651 (C. gattii), ATCC 90028 (Candida albicans), ATCC 90030 (Candida glabrata), ATCC 22019 (Candida parapsilosis), and ATCC MYA 3626 (Aspergillus fumigatus). Yeasts were cultured in liquid (1% yeast extract, 2% Bacto peptone, 2% glucose) or solid (additional 2% agar) yeast extract-peptone-dextrose (YPD) media at 30°C and maintained at 4°C for no longer than 2 weeks. A. fumigatus was prepared on potato dextrose medium at 30°C and maintained at 4°C for no longer than 2 weeks.
The MICs of the yeast strains for PMB, PME, and octapeptin C4 and its derivatives were determined in accordance with CLSI M27-A2 guidelines using YNB (Becton Dickinson, USA) medium supplemented with 10 mM ammonium sulfate and 2% glucose, a final inoculum concentration of 1.5 × 10^3 to 2.0 × 10^3 cells/ml, and incubation at 35°C for 72 h ([39]). […] The MICs for PMB, PME, and octapeptin C4 for A. fumigatus were determined in accordance with the CLSI M38-A2 guidelines ([40]) using synthetic RPMI 1640 medium (with glutamine, without bicarbonate and with phenol red; Life Technologies, USA). The final inoculum concentration was 0.4 × 10^4 to 5 × 10^4 cells/ml, with incubation at 35°C for 48 h. […] All assays were completed in triplicate. Fluconazole was used as a positive control where the MIC was determined at both 50% growth (in accordance with CLSI M27-A2 guidelines) and when there was a “no visible growth” reading.

[2] = test system: capsule-induced or -suppressed C. neoformans H99 cells; test: In vitro time course assay of capsule influence; assay type: cell-based, Cryptococcus neoformans; settings: H99; PMB at 12.5 μM, octapeptin C4 at 1.56 μM; 0-8 h; two replicates
Method: (A) C. neoformans grown on capsule inducing RPMI 1640 agar medium (without L-glutamine and sodium bicarbonate) with incubation at 37°C in 5% CO2 for 3 days. Scale bar, 20 μm. (B) C. neoformans grown on capsule-suppressing media, YPD containing 1 M NaCl at 30°C in ambient air for 3 days. […] The data represent the means of two replicates, and the error bars represent the standard errors of the mean (SEM).
Capsule induction of strain H99 was achieved as described by Zhai et al. ([37]) with growth on RPMI 1640 (without L-glutamine and sodium bicarbonate) (Sigma, Australia) agar medium and incubation at 37°C in 5% CO2 and capsule suppression by growth on YPD containing 1 M NaCl at 30°C in ambient air. After 3 days, the cells from each culture were collected, washed twice with phosphate-buffered saline (PBS), and resuspended in PBS to avoid changes in the capsule at a density of 1,500 to 2,000 cells/ml. Cell suspensions were treated with test compounds at the determined MIC value. The compounds tested were PMB sulfate, octapeptin C4, and the octapeptin C4 alanine scan derivatives P1L, P1D, P4, P3, P4L, P4D, P5, P6, P7, and P8. At 0, 1, 2, 4, 6, and 8 h after inoculation, samples from each treatment were spread onto a YPD plate, followed by incubation at 30°C for 3 days, at which time the colonies were counted. The assay was repeated in duplicate, and paired sample t tests were performed using GraphPad Prism v7.0 (GraphPad Software, USA).

[3] = test system: melanized and nonmelanized C. neoformans cells; test: In vitro time course assay of melanization effect; assay type: cell-based, Cryptococcus neoformans; settings: melanin induced on L-DOPA agar vs suppressed on YPD agar; PMB at 12.5 μM, octapeptin C4 at 1.56 μM; 0-8 h; two replicates
Method: (A) Melanin suppressed C. neoformans. (B) Melanin induced C. neoformans. […] Samples from each flask were taken 0, 1, 2, 4, 6, and 8 h after inoculation, spread onto a YPD plate, and incubated at 30°C for 3 days, at which time the colonies were counted. The data represent the means of two replicates, and the error bars represent the SEM.
Melanization was induced by growth on L-DOPA agar medium at 30°C and suppressed by growth on YPD agar medium at 30°C. Cells were grown over 3 days and collected, washed twice in PBS, and then resuspended in PBS at a density of 1,500 to 2,000 cells/ml. Aliquots of the cells were treated with PMB sulfate, octapeptin C4, and the octapeptin C4 derivatives P1L, P1D, P4, P3, P4L, P4D, P5, P6, P7, and P8 at the determined MICs. At 0, 1, 2, 4, 6, and 8 h after inoculation, samples of the suspension were spread onto YPD agar and incubated at 30°C for 3 days, and the colonies were counted. The assay was repeated in duplicate, and paired sample t tests were performed in GraphPad Prism v7.0.

SMILES: CCCCCCC[C@@H](O)CC(=O)N[C@H](CCN)C(=O)N[C@H]1CCNC(=O)[C@H](CC(C)C)NC(=O)[C@H](CCN)NC(=O)[C@H](CCN)NC(=O)[C@H](CC(C)C)NC(=O)[C@@H](Cc2ccccc2)NC(=O)[C@H](CCN)NC1=O [Octapeptin C4, octapeptin C4] ({Decanoyl(3R-OH)}-[dDab][Dab][Dab][dF]L[Dab][Dab]L; lactam 2-C (inferred); N-terminus assumed)
- MIC C. gattii (C. gattii MMRL 2651): 3.13 µg/mL (≈ 3 µM)
- MICs against various Cryptococcus strains: MMRL 2651 (C. gattii MMRL 2651): 3.13 µg/mL
- MIC C. neoformans ATCC 90113 (C. neoformans ATCC 90113): 1.56 µg/mL (≈ 1.49 µM)
- MICs against various Cryptococcus strains: ATCC 90113 (C. neoformans ATCC 90113): 1.56 µg/mL
- MIC C. neoformans H99 (cap59Δ) ([1]; Table 1, CLSI M27-A2, YNB medium, 35°C, no visible growth after 72 h): 6.25 µg/mL (≈ 5.98 µM)
- MICs against various Cryptococcus strains: H99 (cap59Δ) ([1]; Table 2, values consistent across replicates): 6.25 µg/mL
- effect of capsule formation on fungicidal activity [2]: retarded the fungicidal activity; also recorded: small but statistically significant increase in survival
- effect of melanization on fungicidal activity [3]: slightly enhanced
